What was measured:
[1] = target: T1, Angiotensin-converting enzyme (Oryctolagus cuniculus, UniProt P12822); type: tissue-based, Lung;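 further: enzymatic inhibition of angiotensin-converting enzyme measured with FAPGG as the substrate; in other assays of this panel Not Active means under 50% inhibition at 10 µM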
T1 sequence (P12822 whole entry): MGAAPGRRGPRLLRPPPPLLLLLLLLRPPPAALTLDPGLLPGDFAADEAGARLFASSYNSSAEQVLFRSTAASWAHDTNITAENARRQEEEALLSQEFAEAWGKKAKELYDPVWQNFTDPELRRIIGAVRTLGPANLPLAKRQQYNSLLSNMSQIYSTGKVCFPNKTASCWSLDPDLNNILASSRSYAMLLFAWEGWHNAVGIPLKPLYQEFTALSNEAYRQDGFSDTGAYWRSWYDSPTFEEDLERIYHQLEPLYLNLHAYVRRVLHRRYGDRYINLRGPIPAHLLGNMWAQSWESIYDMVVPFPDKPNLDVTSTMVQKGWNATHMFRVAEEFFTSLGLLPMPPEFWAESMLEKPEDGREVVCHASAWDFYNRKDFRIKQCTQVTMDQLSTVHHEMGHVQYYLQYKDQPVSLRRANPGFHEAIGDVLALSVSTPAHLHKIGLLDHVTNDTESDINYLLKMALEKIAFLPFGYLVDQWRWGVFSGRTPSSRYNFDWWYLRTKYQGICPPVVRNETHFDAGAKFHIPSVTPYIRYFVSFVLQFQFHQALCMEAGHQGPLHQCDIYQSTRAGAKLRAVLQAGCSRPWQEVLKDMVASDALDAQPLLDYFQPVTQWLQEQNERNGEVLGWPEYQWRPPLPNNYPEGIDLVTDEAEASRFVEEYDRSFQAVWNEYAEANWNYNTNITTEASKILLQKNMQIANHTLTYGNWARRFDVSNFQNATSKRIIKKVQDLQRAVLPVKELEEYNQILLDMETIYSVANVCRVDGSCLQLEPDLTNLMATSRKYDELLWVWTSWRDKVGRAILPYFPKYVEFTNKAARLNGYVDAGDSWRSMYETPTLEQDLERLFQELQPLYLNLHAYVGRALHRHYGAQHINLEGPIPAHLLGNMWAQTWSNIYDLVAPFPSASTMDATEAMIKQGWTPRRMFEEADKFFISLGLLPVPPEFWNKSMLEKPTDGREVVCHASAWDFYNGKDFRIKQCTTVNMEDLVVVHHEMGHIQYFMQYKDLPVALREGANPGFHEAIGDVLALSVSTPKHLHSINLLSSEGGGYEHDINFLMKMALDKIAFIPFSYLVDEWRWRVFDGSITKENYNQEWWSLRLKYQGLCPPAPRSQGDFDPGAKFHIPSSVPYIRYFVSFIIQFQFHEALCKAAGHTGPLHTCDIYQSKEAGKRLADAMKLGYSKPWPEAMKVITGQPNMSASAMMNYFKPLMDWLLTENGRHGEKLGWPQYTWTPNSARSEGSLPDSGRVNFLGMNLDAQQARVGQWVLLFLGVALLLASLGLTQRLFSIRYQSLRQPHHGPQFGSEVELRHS

[2] = target: Beta-3 adrenergic receptor (Homo sapiens, UniProt P13945); test: DRUGMATRIX: Adrenergic beta3 radioligand binding (ligand: [125I] Cyanopindolol); type: cell membranes, HEK293, Membrane; settings: hek293; Not Active = under 50% inhibition at 10 µM
Sequence of Beta-3 adrenergic receptor (P13945 whole entry): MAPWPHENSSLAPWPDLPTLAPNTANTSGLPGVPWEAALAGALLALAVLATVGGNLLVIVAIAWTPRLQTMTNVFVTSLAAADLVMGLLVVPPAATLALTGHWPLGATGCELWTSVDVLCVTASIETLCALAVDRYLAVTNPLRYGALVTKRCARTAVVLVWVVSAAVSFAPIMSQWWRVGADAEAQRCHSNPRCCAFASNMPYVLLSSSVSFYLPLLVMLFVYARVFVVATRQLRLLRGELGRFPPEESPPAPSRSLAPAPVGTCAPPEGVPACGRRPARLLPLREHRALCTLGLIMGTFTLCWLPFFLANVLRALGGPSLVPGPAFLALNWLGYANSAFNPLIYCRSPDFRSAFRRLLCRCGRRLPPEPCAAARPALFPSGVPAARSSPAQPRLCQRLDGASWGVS

[3] = DRUGMATRIX: Glutamate, NMDA, Phencyclidine radioligand binding (ligand: [3H] TCP); type: cell membranes, Rattus norvegicus, Wistar, Cerebral cortex, Membrane; settings: Not Active = under 50% inhibition at 10 µM
[4] = DRUGMATRIX: Glutamate, AMPA radioligand binding (ligand: [3H] AMPA); type: cell membranes, Rattus norvegicus, Wistar, Cerebral cortex, Membrane; settings: Not Active = under 50% inhibition at 10 µM
[5] = DRUGMATRIX: Atrial Natriuretic Factor (ANF) radioligand binding (ligand: [125I] ANF (rat)); type: cell membranes, Cavia porcellus, Dunkin-Hartley, Adrenal gland, Membrane; settings: Not Active = under 50% inhibition at 10 µM
[6] = target: Sodium-dependent noradrenaline transporter (Homo sapiens, UniProt P23975); test: DRUGMATRIX: Norepinephrine Transporter radioligand binding (ligand: [125I] RTI-55); type: cell membranes, MDCK, Membrane; settings: Not Active = under 50% inhibition at 10 µM
Sequence of Sodium-dependent noradrenaline transporter (P23975 whole entry): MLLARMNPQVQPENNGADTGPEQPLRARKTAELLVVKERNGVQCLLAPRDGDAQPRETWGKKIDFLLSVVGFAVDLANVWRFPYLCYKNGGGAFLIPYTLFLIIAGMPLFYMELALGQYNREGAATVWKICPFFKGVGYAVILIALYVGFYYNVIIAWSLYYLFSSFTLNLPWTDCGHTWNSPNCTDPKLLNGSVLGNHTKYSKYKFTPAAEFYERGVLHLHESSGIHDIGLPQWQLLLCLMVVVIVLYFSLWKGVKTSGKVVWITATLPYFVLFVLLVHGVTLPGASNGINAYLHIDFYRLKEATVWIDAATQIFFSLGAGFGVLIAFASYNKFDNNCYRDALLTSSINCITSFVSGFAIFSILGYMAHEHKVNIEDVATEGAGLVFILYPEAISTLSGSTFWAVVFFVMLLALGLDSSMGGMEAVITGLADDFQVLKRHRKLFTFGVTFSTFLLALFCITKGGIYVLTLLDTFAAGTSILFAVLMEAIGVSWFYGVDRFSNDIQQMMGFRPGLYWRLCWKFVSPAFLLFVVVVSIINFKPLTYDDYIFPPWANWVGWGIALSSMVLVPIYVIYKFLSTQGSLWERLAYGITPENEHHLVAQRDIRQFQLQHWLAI

[7] = target: T2, Neutrophil elastase (Homo sapiens, UniProt P08246); type: tissue-based;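 further: inhibition of neutrophil elastase enzyme activity, measured with a p-nitroanilide-linked peptide substrate; in other assays of this panel Not Active means under 50% inhibition at 10 µM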
T2 sequence (P08246 whole entry): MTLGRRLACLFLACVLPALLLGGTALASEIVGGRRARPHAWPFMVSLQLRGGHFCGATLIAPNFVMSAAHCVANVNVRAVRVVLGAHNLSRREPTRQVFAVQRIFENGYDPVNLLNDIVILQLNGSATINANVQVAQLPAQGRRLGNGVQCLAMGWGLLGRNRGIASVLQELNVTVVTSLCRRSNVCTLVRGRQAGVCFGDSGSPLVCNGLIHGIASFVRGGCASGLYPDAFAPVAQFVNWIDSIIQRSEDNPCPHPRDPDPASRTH

Row | Compound | IC50 [1] | IC50 [2] | IC50 [3] | Ki [3] | IC50 [4] | Ki [4] | IC50 [5] | Ki [5] | IC50 ([6]; mdck) | IC50 [7] | IC50 ([6]; read-out: IC50) [µM] | Ki ([6]; read-out: Ki) [µM] | Ki [1] | Ki [2] | Ki ([6]; mdck) | Ki [7]
1 | Nc1nc2c(ncn2COCCO)c(=O)[nH]1 [ACYCLOVIR] | Not Active | Not Active | Not Active | Not Active | Not Active | Not Active | Not Active | Not Active | Not Active | Not Active | – | – | – | – | – | –
2 | CN(C)CCCN1c2ccccc2Sc2ccccc21 [PROMAZINE] | Not Active | Not Active | Not Active | Not Active | Not Active | Not Active | Not Active | Not Active | – | Not Active | 0.013 | 0.013 | – | – | – | –
3 | CC1(C)O[C@@H]2C[C@H]3[C@@H]4CCC5=CC(=O)CC[C@]5(C)[C@@]4(F)[C@@H](O)C[C@]3(C)[C@]2(C(=O)CCl)O1 [HALCINONIDE] | Not Active | Not Active | Not Active | Not Active | Not Active | Not Active | Not Active | Not Active | Not Active | Not Active | – | – | – | – | – | –
4 | CC1CC(OC(=O)C(O)c2ccccc2)CC(C)(C)C1 (centres undefined) [CYCLANDELATE] | Not Active | Not Active | Not Active | Not Active | Not Active | Not Active | Not Active | Not Active | Not Active | Not Active | – | – | – | – | – | –
5 | LEAD (II) ACETATE | Not Active | Not Active | Not Active | Not Active | Not Active | Not Active | Not Active | Not Active | Not Active | Not Active | – | – | Not Active | Not Active | Not Active | Not Active
6 | Sc1ncnc2nc[nH]c12 [MERCAPTOPURINE ANHYDROUS] | Not Active | Not Active | Not Active | Not Active | Not Active | Not Active | Not Active | Not Active | Not Active | Not Active | – | – | – | – | – | –
7 | O=c1[nH]c(=O)n([C@H]2C[C@H](O)[C@@H](CO)O2)cc1I [IDOXURIDINE] | Not Active | Not Active | Not Active | Not Active | Not Active | Not Active | Not Active | Not Active | Not Active | Not Active | – | – | – | – | – | –
8 | CC1(C)S[C@@H]2[C@H](NC(=O)Cc3ccccc3)C(=O)N2[C@H]1C(=O)O [PENICILLIN G] | Not Active | Not Active | Not Active | Not Active | Not Active | Not Active | Not Active | Not Active | Not Active | Not Active | – | – | – | – | – | –
9 | CC1=C2C(=CO[C@H](C)[C@H]2C)C(O)=C(C(=O)O)C1=O [CITRININ] | Not Active | Not Active | Not Active | Not Active | Not Active | Not Active | Not Active | Not Active | Not Active | Not Active | – | – | – | – | – | –
10 | Cc1c(C)c2c(c(C)c1O)CC[C@@](C)(CCC[C@H](C)CCC[C@H](C)CCCC(C)C)O2 [ALPHA-TOCOPHEROL] | Not Active | Not Active | Not Active | Not Active | Not Active | Not Active | Not Active | Not Active | Not Active | Not Active | – | – | – | – | – | –
11 | O=C(O)CCCc1ccc(N(CCCl)CCCl)cc1 [CHLORAMBUCIL] | Not Active | Not Active | Not Active | Not Active | Not Active | Not Active | Not Active | Not Active | Not Active | Not Active | – | – | – | – | – | –
12 | CC[C@@]1(O)C[C@H](O[C@H]2C[C@H](N(C)C)[C@H](O[C@H]3C[C@H](O)[C@H](O[C@H]4CCC(=O)[C@H](C)O4)[C@H](C)O3)[C@H](C)O2)c2c(cc3c(c2O)C(=O)c2c(O)cccc2C3=O)[C@H]1C(=O)OC [ACLARUBICIN] | Not Active | Not Active | Not Active | Not Active | Not Active | Not Active | Not Active | Not Active | Not Active | Not Active | – | – | – | – | – | –
13 | CC(=O)O[C@@]12CO[C@@H]1C[C@H](O)[C@@]1(C)C(=O)[C@H](O)C3=C(C)[C@@H](OC(=O)[C@H](O)[C@@H](NC(=O)OC(C)(C)C)c4ccccc4)C[C@@](O)([C@@H](OC(=O)c4ccccc4)[C@H]21)C3(C)C.O.O.O [DOCETAXEL] | Not Active | Not Active | Not Active | Not Active | Not Active | Not Active | Not Active | Not Active | Not Active | Not Active | – | – | – | – | – | –
14 | CC(C)CN(C[C@@H](O)[C@H](Cc1ccccc1)NC(=O)O[C@H]1CCOC1)S(=O)(=O)c1ccc(N)cc1 | Not Active | Not Active | Not Active | Not Active | Not Active | Not Active | Not Active | Not Active | Not Active | Not Active | – | – | – | – | – | –
15 | C[C@](N)(Cc1ccc(O)c(O)c1)C(=O)O [METHYLDOPA] | Not Active | Not Active | Not Active | Not Active | Not Active | Not Active | Not Active | Not Active | Not Active | Not Active | – | – | – | – | – | –
16 | Nc1nc(N)nc(-c2cc(Cl)ccc2Cl)n1.O=C(O)/C=C\C(=O)O [IRSOGLADINE MALEATE] | Not Active | Not Active | Not Active | Not Active | Not Active | Not Active | Not Active | Not Active | Not Active | Not Active | – | – | – | – | – | –
17 | Nc1ncn([C@@H]2O[C@H](CO)[C@@H](O)[C@H]2O)c(=O)n1 [AZACITIDINE] | Not Active | Not Active | Not Active | Not Active | Not Active | Not Active | Not Active | Not Active | Not Active | Not Active | – | – | – | – | – | –
18 | LIPOPOLYSACCHARIDE E. COLI O55:B5 | Not Active | Not Active | Not Active | Not Active | Not Active | Not Active | Not Active | Not Active | Not Active | Not Active | – | – | Not Active | Not Active | Not Active | Not Active
19 | CCCCN1CCCC[C@H]1C(=O)Nc1c(C)cccc1C [LEVOBUPIVACAINE] | Not Active | Not Active | Not Active | Not Active | Not Active | Not Active | Not Active | Not Active | Not Active | Not Active | – | – | – | – | – | –
20 | CC(C)C(=O)Nc1ccc([N+](=O)[O-])c(C(F)(F)F)c1 [FLUTAMIDE] | Not Active | Not Active | Not Active | Not Active | Not Active | Not Active | Not Active | Not Active | Not Active | Not Active | – | – | – | – | – | –

Reference: ChEMBL document CHEMBL1909046, “DrugMatrix in vitro pharmacology data”
